Values of other authors, collected in patent US20250319042A1, “SKIN CARE PRODUCT WITH LAPACHOL AND METHOD FOR USE THEREOF” (priority 2024, published 2025).

Key:
[1] = test system: tumor necrosis factor alpha (TNF-a); conditions: in cell culture
[2] = test system: MMP-9; conditions: in cell culture
[3] = test system: MMP-8; conditions: in cell culture
[4] = test system: prostaglandin E2 (PGE2); conditions: in cell culture
[5] = test system: matrix metalloproteinase 3 (MMP-3); conditions: in cell culture

SMILES | solubility | inhibition of TNF-a [1] | inhibition of MMP-9 [2] | inhibition of MMP-8 [3] | inhibition of PGE2 [4] | inhibition of MMP-3 [5]
CC(C)=CCC1=C(O)C(=O)c2ccccc2C1=O [lapachol, 2-hydroxy-3-(3-methyl-2-butenyl)-1,4-naphtoquinone] | primarily oil-soluble |  |  |  |  | 
CC1(C)CCC2=C(O1)c1ccccc1C(=O)C2=O [beta-lapachone] |  | inhibits | inhibits | inhibits | inhibits | inhibits
